Key:
[1] = tested on: AhR; test: AhR activation in Caco-2 cells through CYP1A1 mRNA expression; settings: overnight
Protocol: Caco-2 cells from American Type Culture Collection (ATCC) were plated in a sterile tissue culture treated 96-well plate (ThermoFisher) at […], and grown overnight at 37° C., 5% CO2 in DMEM complete (Gibco) in order to achieve confluence. After the incubation medium was aspirated off of the Caco-2 monolayers, tissues were then washed with 200 μL of warmed PBS solution, and subsequently 190 μL of pre-warmed growth medium was added to each well. Compounds of interest were diluted at a 20× concentration in growth medium containing 2% DMSO, and 10 μL of compound solutions were added to respective wells in triplicate. Compounds where incubated overnight at 37° C., 5% CO2. 2-(1′H-indole-3′-carbonyl)-thiazole-4-carboxylic acid methyl ester (ITE) was used as the positive control for AhR activation at 1 and 100 μM concentrations. At the end of the incubation, medium was aspirated off of the Caco-2 cells, and the cells washed with 100 μL of cold PBS solution. RNA was extracted via the TaqMan™ Gene Expression Cells-to-CT™ Kit (ThermoFisher) according to the manufacturers protocol. The QuantStudio 6 Flex (Applied Biosciences) was used to analyze mRNA levels of CYP1A1 using GAPDH as the endogenous control. TaqMan™ probe sets for both genes were acquired from ThermoFisher. Samples were run in triplicate and data was analyzed using the QuantStudio software and reported as linear (Table 1) and log 2(ΔΔCT) values. Statistical analysis was performed using a two-tailed t-test comparing CYP1A1 levels in the presence of each individual compound to the vehicle negative control.

[2] = tested on: neutrophil; test: Neutrophil chemokine production assay; format: cell-based, human; settings: 12 h
Protocol: A volume 25 mL of human blood was layered over 15 mL of Histopaque®-1077 and centrifuged at 500 g, RT, for 30 min with no break applied to the centrifuge. The PBMC band and Histopaque®-1077 layer were removed leaving behind the bottom red layer which was mixed with 40 mL of 1× red blood cell (RBC) lysis buffer (Sigma-Aldrich) was and split into two 50 mL tubes. The volume for both fractions was brought to 50 mL with RBC lysis buffer, mixed by inversion, and then incubated at RT for 10 min. Solutions were centrifuged at 250 g, for 10 min at RT and the supernatant liquids removed. The reddish pellets were re-suspended in 1 mL of RBC lysis buffer and combined. The cell suspension was incubated for 5 min at RT in RBC lysis buffer. After incubation 45 mL of Hanks Balanced Salt Solution with no calcium, magnesium or phenol red (HBSS−) was added, the cell suspension was spun (250 g for 10 min at RT), and supernatant liquids were removed. The white pellet was re-suspended in 1 mL of HBSS−, and cell counts were determined. The neutrophil cell suspension was brought to a concentration of 1.11e6 cells/mL in RPMI complete (Sigma-Aldrich), and 180 μL of cell suspension was transferred to all wells within a sterile 96-well tissue culture treated plate resulting in 2.0e5 cells/well. […] After incubation, 10 μL of 2 μg/mL LPS solution in RPMI complete was added to each well except for control wells, which received an additional 10 μL of media. Cells were incubated for 12 h (37° C., 5% CO2), after which plates were centrifuged at 250 g, RT, for 5 min and supernatant liquids were obtained and stored at −80° C. until analyzed via Luminex® Multiplex Assay for various chemokines and cytokines. Three data points were acquired from two different blood donors and averaged.

[3] = tested on: Caco-2 colonocytes; test: Human Caco-2 barrier integrity assay (TEER); format: cell-based; settings: 48 hours
Protocol: At 70-80% confluency, cells were trypsinized and seeded in 0.4 cm^2 transwell collagen I coated membranes with supplemented DMEM in both apical and basolateral compartments. Cells were seeded at a density of 200,000 cells per well and maintained for 10 days to form a polarized barrier with a TransEpithelial […] After 48 hours, TEER readings were taken again and viability was measured by CellTiter 96® AQueous One Solution Cell Proliferation Assay (Promega). The percent change in TEER over the 48 hours was determined and normalized to the 0.1% DMSO control (Table 6).

[4] = tested on: naïve CD4+ T cells; test: Human regulatory T cell differentiation assay; format: cell-based; settings: 6 days
Protocol: Peripheral blood mononuclear cells (PBMCs) from whole blood donated by health volunteers were separated by Ficoll-Paque gradient centrifugation and naïve CD4^+ T cells were subsequently isolated using magnet beads (EasySep™ Human Naïve CD4^+ T Cell Isolation Kit, Cambridge, MA). For regulatory T cell (Treg) differentiation assay, naïve CD4^+ T cells were cultured (1-10×10^4 cells) in CTS OpTmizer medium for 6 days and stimulated with 5 ng/ml TGF-β, 100 U/ml IL-2, and ImmunoCult™ Human […] T Cell Activator; Stemcell #10990) with/without our Compounds. Cell viability was determined using a viability dye (eBioscience Fixable Viability Dye eFluor 780: ThermoFisher 65-0865-14) at 1:500 dilution. The cells were gated for Treg, defined as Live, CD11c^−, CD14^−, CD19^−, CD8^−, CD4^+, CD3^+, CD25^+, FOXP3^+. Percent (%) Tregs were calculated as percentage of CD4^+, CD25^+, FOXP3^+ cells over total CD4 T cells. Statistical analysis was performed with GraphPad Prism Software Using One-Way ANOVA.

[5] = tested on: Primary Human Peripheral Blood Mononuclear Cells (PBMCs); test: Inflammatory signals in LPS-treated primary human PBMCs; format: cell-based; settings: 100 uM, 24 hours
Protocol: Human donor blood (8 mL) was collected in sodium citrate CPT tubes and centrifuged at 1,600×g for 20 minutes at room temperature. Buffy coat containing PBMCs was collected and transferred to a 50 mL conical tube containing 30 mL of RPMI-1640 medium at room temperature (supplemented with penicillin-streptomycin). PBMCs samples were centrifuged at 400×g for 10 minutes at 10° C. The pelleted PBMCs were washed twice in 10 ml of RPMI-1640 medium (supplemented with penicillin-streptomycin), then resuspended in RPMI-1640 medium (supplemented with penicillin-streptomycin, fetal bovine serum, and L-Glutamine). PBMCs were filtered through a 70 micron mesh to remove any cellular debris. […] PBMCs in a 96-well plate were rested for 30 minutes in a 37° C., 5% CO2 incubator, then subsequently treated with 10 μl of indicated compound. After 2 hours 10 μL of LPS (O111:B4) 1 mg/mL was added to test wells. After 24 hours of incubation at 37° C., 5% CO2, 100 μL of cell supernatant was collected and transferred to a 96-well plate (non-tissue treated, flat bottom). The plate was centrifuged at 350×g for 5 minutes at room temperature, and then the clear supernatant transferred to a new 96-well plate (non-tissue treated, flat bottom). The remaining cells were tested for viability using CellTiter-Glo® Luminescent Cell Viability Assay (Promega). The supernatant was analyzed for TNFα, IL-6 and […] Systems), using Luminex Immunoassay Technology (MAGPIX System). Cytokine levels of LPS treated DMSO control samples were set to 100%, and compound treated samples were expressed relative to this (Table 3).

[6] = tested on: adoptive T-cell transfer mice; test: Adoptive T-cell transfer study; format: in vivo, CB-17 SCID mice; settings: compound 44 100 mg/kg, olsalazine 30 mg/kg, through day 42, compared to the vehicle control
From the text: On study day 0, naïve T-cells were obtained from the spleen of 11 to 12 week-old Balb/C mice using the SCID Cell Separation Protocol with the following labelling scheme; CD4+CD45RB^highCD25− and CD4+CD45RB^lowCD25+ cell (APC CD4 Antibody (100412), FITC CD45RB Antibody (103306), PE CD25 Antibody (101904), from BioLegend, San Diego, CA, and CD4 cell enrichment kit: 19752A, Stemcell Technologies, Cambridge, MA) and the 4×10^5 of CD4^+CD45RB^highCD25− cells were transferred 6-7 weeks old CB-17 SCID mice. Recipient mice were randomized based on their body weight (n=12 mice/group), and received […] of vehicle (0.5% methyl-cellulose) (vehicle control), 0.5 mg per mouse of anti-IL-12 (positive control), 30 mg/kg of olsalazine (positive treatment group), and 100 mg/kg of compound 44 (compound treatment group) through day 42. On day 42, animals were anesthetized with Isoflurane and bled to exsanguination followed by cervical dislocation. The entire colon was removed and the overall efficacy of compound 44 was assessed based on colon length and weight per length. […] Statistical analysis was performed with GraphPad Prism (GraphPad Software). Mann-Whitney U test was used to assess significance between the vehicle control and each treatment group.

## Cn1cc(C[C@H](N)C(=O)O)c2ccccc21 [1-methylindole-3-alanine]
[1]; 10.0 μM
  Average CYP1A1 mRNA levels: + (+ = >2-fold Vehicle)
[1]; 100.0 μM
  Average CYP1A1 mRNA levels: +++ (+++ = >10-fold Vehicle)

## O=C(O[C@@H]1Cc2c(O)cc(O)cc2O[C@@H]1c1cc(O)c(O)c(O)c1)c1cc(O)c(O)c(O)c1 [EGCG, epigallocatechin gallate]
[2]; 0.1 μM
  % IL-8 (Vehicle + LPS = 100%): − (− = >90% Vehicle)
  % MIP-1α (Vehicle + LPS = 100%): − (− = >90% Vehicle)
  % MIP-1β (DMSO + LPS = 100%): − (− = >90% Vehicle)
[2]; 1.0 μM
  % IL-8 (Vehicle + LPS = 100%): − (− = >90% Vehicle)
  % MIP-1α (Vehicle + LPS = 100%): − (− = >90% Vehicle)
  % MIP-1β (DMSO + LPS = 100%): − (− = >90% Vehicle)
[1]; 0.1 μM
  Average CYP1A1 mRNA levels: − (- = <2-fold Vehicle)
[1]; 1.0 μM
  Average CYP1A1 mRNA levels: − (- = <2-fold Vehicle)
[3]; 100 nM + cytokines
  % Change in TEER from DMSO: − (<125%: −)
[3]; 1 μM + cytokines
  % Change in TEER from DMSO: − (<125%: −)
[4]; 100 nM
  Cell viability % DMSO: = (90%> <110%: =)
  Treg induction % DMSO: = (90%> <110%: =)
[4]; 1 uM
  Cell viability % DMSO: = (90%> <110%: =)
  Treg induction % DMSO: = (90%> <110%: =)

## CC(=O)O [acetate]
[2]; 500.0 μM
  % IL-8 (Vehicle + LPS = 100%): − (− = >90% Vehicle)
  % MIP-1α (Vehicle + LPS = 100%): + (+ = <90% Vehicle)
  % MIP-1β (DMSO + LPS = 100%): + (+ = <90% Vehicle)
[2]; 1000.0 μM
  % IL-8 (Vehicle + LPS = 100%): − (− = >90% Vehicle)
  % MIP-1α (Vehicle + LPS = 100%): ++ (++ = <70%Vehicle)
  % MIP-1β (DMSO + LPS = 100%): + (+ = <90% Vehicle)
[2]; 3000.0 μM
  % IL-8 (Vehicle + LPS = 100%): +++ (+++ = <50% Vehicle)
  % MIP-1α (Vehicle + LPS = 100%): +++ (+++ = <50% Vehicle)
  % MIP-1β (DMSO + LPS = 100%): +++ (+++ = <50% Vehicle)
[3]; 1 mM + cytokines
  % Change in TEER from DMSO: − (<125%: −)
[3]; 3 mM + cytokines
  % Change in TEER from DMSO: − (<125%: −)
[5]
  IL1β % DMSO control: = ((=) 90%> <110% DMSO)
  IL6 % DMSO control: = ((=) 90%> <110% DMSO)
  TNFα % of DMSO control: = ((=) 90%> <110% DMSO)

## c1ccc2[nH]ccc2c1 [indole]
[1]; 1000.0 μM
  Average CYP1A1 mRNA levels: + (+ = >2-fold Vehicle)

## O=C(O)c1cc(/N=N/c2ccc(O)c(C(=O)O)c2)ccc1O [olsalazine, reference compound]
[6]
  colon weight per length (FIG. 3B): significantly increased the colon weight per length
